According to the NIST ThermoML archive (doi:10.1021/je049960h):

Conditions: 101.33 kPa, Liquid; for viscosity: Capillary tube (Ostwald / Ubbelohde) method; for mass density: Pycnometric method; for thermal conductivity: Hot wire method

CC(O)CO (stereo not drawn) [1,2-propanediol]
Conditions	mass density [kg/m3]	thermal conductivity [W/m/K]	viscosity [mPa·s]
297.25 K	–	–	46.4
298.85 K	1033	–	–
299.1 K	–	0.196	–
302.55 K	–	–	34
313.6 K	–	0.195	–
317.1 K	–	–	16.4
318.05 K	1018	–	–
332.3 K	–	–	8.75
332.9 K	–	0.195	–
339 K	1003	–	–
347.4 K	–	–	5.26
352.3 K	–	0.194	–
359.4 K	986.1	–	–
362.05 K	–	–	3.42
371.6 K	–	0.193	–
376.45 K	–	–	2.34
380.95 K	967.6	–	–
391.05 K	–	–	1.67
391.1 K	–	0.192	–
399.6 K	951.2	–	–
406.05 K	–	–	1.27
411.4 K	–	0.19	–
420.2 K	931.7	–	–
420.85 K	–	–	0.982
430.4 K	–	0.187	–
440.35 K	912.2	–	–
450.8 K	–	0.183	–

CC(O)COC(C)COC(C)CO (stereo not drawn) [2-[2-(2-hydroxypropoxy)propoxy]-1-propanol]
Conditions	mass density [kg/m3]	thermal conductivity [W/m/K]	viscosity [mPa·s]
294.82 K	–	–	69.4
295.01 K	1017	–	–
298.1 K	–	0.152	–
313.05 K	1003	–	23.6
326.1 K	–	0.152	–
333.1 K	986.4	–	9.64
351.1 K	–	0.15	–
353.1 K	969.9	–	4.85
372.15 K	953.5	–	2.91
376.2 K	–	0.148	–
391.5 K	936.4	–	1.91
399.4 K	–	0.145	–
411.35 K	918.7	–	1.33
424.9 K	–	0.14	–
428.2 K	903.3	–	1.03
449.6 K	–	0.135	–

OCCCOCCCO [4-oxa-1,7-heptanediol]
Conditions	mass density [kg/m3]	thermal conductivity [W/m/K]	viscosity [mPa·s]
297.42 K	–	–	81.5
297.45 K	1020	–	–
298.2 K	–	0.156	–
309.8 K	–	0.157	–
313.05 K	1008	–	–
313.07 K	–	–	29.8
316.9 K	–	0.156	–
333.1 K	992.4	–	11.1
347.4 K	–	0.156	–
353.1 K	976.1	–	5.24
363 K	–	0.156	–
372.25 K	960.3	–	3
377.6 K	–	0.155	–
391.45 K	943.1	–	1.9
391.6 K	–	0.154	–
405.7 K	–	0.153	–
408.35 K	928.1	–	1.36
420.3 K	916.9	–	1.1
420.6 K	–	0.151	–
428.3 K	909.6	–	0.97
435.1 K	–	0.149	–
